Results published in patent US10265307B2, “Thiazolecarboxamides and pyridinecarboxamide compounds useful as Pim kinase inhibitors” (Incyte Corporation, priority 2013, dated 2019).

What was measured:
Format in all cases: biochemical
[1] = molecular target: Pim-2 (Homo sapiens (Human), UniProt Q9P1W9); experiment: Pim-2 kinase assay; settings: 1 mM ATP; read-out: Pim2 IC50
Experimental: Pim-2 kinase assay-20 μL reactions were run in white 384 well polystyrene plates dotted with 0.8 μL compound/DMSO in the assay buffer (50 mM Tris, pH 7.5, 0.01% Tween-20, 5 mM MgCl2, 0.01% BSA, 5 mM DTT), containing 0.05 μM Fluorescein-labeled CREBtide peptide substrate (Invitrogen PV3508), 1 mM ATP, and 1 nM enzyme (Invitrogen PV3649) for 2 h at 25° C. Reactions were stopped by addition of 10 μL TR-FRET Dilution Buffer (Invitrogen PV3574) with 30 mM EDTA and 1.5 nM LanthaScreen Tb-CREB pSer133 antibody (Invitrogen PV3566). After 30 min. incubation at room temperature, plates were read on a PHERAstar FS plate reader (BMG Labtech).
Although the above in vitro assays are conducted at 1 mM ATP compounds can also be evaluated for potency and in vitro activity against PIM targets utilizing Km conditions, where the concentration of ATP is set to the Km value and the assay is more sensitive to PIM inhibition activity.

[2] = molecular target: Pim-3 (Homo sapiens (Human), UniProt Q86V86); experiment: Pim-3 kinase assay; settings: 1 mM ATP; read-out: Pim3 IC50
Experimental: Pim-1 and Pim-3 kinase assays-20 μL reactions were run in white 384 well polystyrene plates dotted with 0.8 μL compound/DMSO in the assay buffer (50 mM Tris, pH 7.5, 0.01% Tween-20, 5 mM MgCl2, 0.01% BSA, 5 mM DTT), containing 0.05 μM Biotin-labeled BAD peptide substrate (AnaSpec 62269), 1 mM ATP, and […] (Pim-1, Invitrogen PV3503) or […] (Pim-3, Millipore 14-738) enzyme for 1 h at 25° C. Reactions were stopped by addition of 10 μL STOP Buffer (150 mM Tris, pH=7.5, 150 mM NaCl, 75 mM EDTA, 0.01% Tween-20, 0.3% BSA) supplemented with Phospho-Bad (Ser112) Antibody (Cell Signaling 9291) diluted 666-fold, and Streptavidin donor beads (PerkinElmer 6760002) along with Protein-A acceptor beads (PerkinElmer 6760137) at 15 μg/mL each. Supplementation of the STOP buffer with beads and stopping the reactions were done under reduced light. Prior to the stopping reactions STOP buffer with beads was pre-incubated for 1 h in the dark at room temperature. After stopping the reactions, plates were incubated for 1 h in the dark at room temperature before reading on a PHERAstar FS plate reader (BMG Labtech) under reduced light.

[3] = molecular target: Pim-1 (Homo sapiens (Human), UniProt P11309); experiment: Pim-1 kinase assay; settings: 1 mM ATP; read-out: Pim1 IC50
Experimental: Supplementation of the STOP buffer with beads and stopping the reactions were done under reduced light. Prior to the stopping reactions STOP buffer with beads was pre-incubated for 1 h in the dark at room temperature. After stopping the reactions, plates were incubated for 1 h in the dark at room temperature before reading on a PHERAstar FS plate reader (BMG Labtech) under reduced light.

Measured: IC50

Pim-2, sequence (Q9P1W9 whole entry): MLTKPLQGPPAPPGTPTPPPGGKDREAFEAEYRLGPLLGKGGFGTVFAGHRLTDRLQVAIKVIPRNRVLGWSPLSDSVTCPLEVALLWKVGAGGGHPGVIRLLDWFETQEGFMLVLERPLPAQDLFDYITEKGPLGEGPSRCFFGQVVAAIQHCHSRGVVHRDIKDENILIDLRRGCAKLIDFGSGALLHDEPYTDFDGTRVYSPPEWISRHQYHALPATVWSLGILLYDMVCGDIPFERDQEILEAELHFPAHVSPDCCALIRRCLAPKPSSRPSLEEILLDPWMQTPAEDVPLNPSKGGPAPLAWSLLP
Pim-1, sequence (P11309 whole entry): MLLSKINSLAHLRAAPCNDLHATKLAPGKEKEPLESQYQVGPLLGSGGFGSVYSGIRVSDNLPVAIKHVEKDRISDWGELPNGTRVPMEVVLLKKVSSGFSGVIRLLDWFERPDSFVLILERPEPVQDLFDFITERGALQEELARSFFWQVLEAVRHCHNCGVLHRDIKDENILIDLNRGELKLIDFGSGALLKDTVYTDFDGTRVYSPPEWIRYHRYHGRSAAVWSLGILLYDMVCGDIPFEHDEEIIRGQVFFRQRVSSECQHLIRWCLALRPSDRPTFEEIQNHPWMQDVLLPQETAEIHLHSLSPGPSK

C[C@H]1CN(c2c(NC(=O)c3ccc(F)c(-c4c(F)cccc4F)n3)cnc3c2CCC3O)C[C@@H](N)C1(C)O (single isomer, unassigned) [63 (Diastereoisomer 4)]
≤ 100 nM: all assays above

COCc1cc(F)c(-c2nc(C(=O)Nc3cnc4c(c3N3C[C@H](C)C[C@H](N)C3)CCC4O)ccc2F)c(F)c1 (single isomer, unassigned) [64 (Diastereoisomer 1)]
≤ 100 nM: all assays above

COCc1cc(F)c(-c2nc(C(=O)Nc3cnc4c(c3N3C[C@H](C)C[C@H](N)C3)CCC4O)ccc2F)c(F)c1 (single isomer, unassigned) [64 (Diastereoisomer 2)]
≤ 100 nM: all assays above

COCc1cc(F)c(-c2nc(C(=O)Nc3cnc4c(c3N3C[C@@H](N)[C@H](O)[C@@H](C)C3)CCC4O)ccc2F)c(F)c1 (single isomer, unassigned) [66 (Diastereoisomer 1)]
≤ 100 nM: all assays above

COCc1cc(F)c(-c2nc(C(=O)Nc3cnc4c(c3N3C[C@@H](N)[C@H](O)[C@@H](C)C3)CCC4O)ccc2F)c(F)c1 (single isomer, unassigned) [66 (Diastereoisomer 2)]
≤ 100 nM: all assays above

C[C@@H]1C[C@H](N)CN(c2c(NC(=O)c3ccc(F)c(-c4c(F)cc(C(C)(C)O)cc4F)n3)cnc3c2CCC3O)C1 (single isomer, unassigned) [67 (Diastereoisomer 1)]
≤ 100 nM: all assays above

C[C@@H]1C[C@H](N)CN(c2c(NC(=O)c3ccc(F)c(-c4c(F)cc(C(C)(C)O)cc4F)n3)cnc3c2CCC3O)C1 (single isomer, unassigned) [67 (Diastereoisomer 2)]
≤ 100 nM: all assays above

N[C@@H]1CN(c2c(NC(=O)c3ccc(F)c(-c4c(F)cccc4F)n3)cnc3c2CCC3O)C[C@H](C2CC2)[C@H]1O (single isomer, unassigned) [68 (Diastereoisomer 1)]
≤ 100 nM: all assays above

N[C@@H]1CN(c2c(NC(=O)c3ccc(F)c(-c4c(F)cccc4F)n3)cnc3c2CCC3O)C[C@H](C2CC2)[C@H]1O (single isomer, unassigned) [68 (Diastereoisomer 2)]
≤ 100 nM: all assays above

C[C@@H]1C[C@H](N)CN(c2c(NC(=O)c3ccc(F)c(-c4c(F)cc(OC5CCCOC5)cc4F)n3)cnc3c2CCC3O)C1 (single isomer, unassigned) [70 (Diastereoisomer 1)]
≤ 100 nM: all assays above

C[C@@H]1C[C@H](N)CN(c2c(NC(=O)c3ccc(F)c(-c4c(F)cc(OC5CCCOC5)cc4F)n3)cnc3c2CCC3O)C1 (single isomer, unassigned) [70 (Diastereoisomer 2)]
≤ 100 nM: all assays above

CC(C)(O)c1cc(F)c(-c2nc(C(=O)Nc3cnc4c(c3N3C[C@@H](N)C[C@@H](C(F)(F)F)C3)CCC4O)ccc2F)c(F)c1 (single isomer, unassigned) [72 (Diastereoisomer 1)]
≤ 100 nM: all assays above

CC(C)(O)c1cc(F)c(-c2nc(C(=O)Nc3cnc4c(c3N3C[C@@H](N)C[C@@H](C(F)(F)F)C3)CCC4O)ccc2F)c(F)c1 (single isomer, unassigned) [72 (Diastereoisomer 2)]
≤ 100 nM: all assays above
